According to US6784192B2, “Piperidine compound and pharmaceutical composition thereof” (Eisai Co., Ltd., priority 2000, dated 2004):

Tests used:
[1] = test system: atrial muscle of anesthetized thoracotomy dog; assay: Effective refractory period (ERP) in anesthetized thoracotomy dog; format: in vivo; conditions: for Measurement Value of ERP: mean
From the text: (1) An anesthetized thoracotomy dog was used for the present experiment. After opening brisket at a median line and cutting epicardium, bipolar electrodes for determination of a potential wave form were respectively stitched at the free walls of right and left atriums. Further, a wire electrode was inserted in the free wall of a right atrium to be fixed and used for electrical simulation.
(2) A program electrical stimulation equipment was connected with the electrode for electrical stimulation at the right atrium, the electrical stimulation was carried out at a stimulation periodical length of 500 mess, and a threshold for the electrical stimulation was measured. The electrical stimulation intensity for the experiments below was set to carry out stimulation at 3-fold of this threshold. However, when the threshold was 0.7 V or less, the electrical stimulation was carried out at 2.0 V. Effective refractory period (ERP) provided early premature stimulation (S2) after the basic stimulation (S1) of 10 times, and the longest linking period in which atrium potential was not generated by the premature stimulation was referred to as ERP, while shortening the linking period (S1-S2) by 5 mess. Similar experiments were also carried out for the respective basic stimulation length (BCL) of 400, 300, 250 and 200 mess (control experiment: 1 series). After carrying out 2 times or more of the control experiments and confirming that ERP was stable, the tested substance was subsequently administered, and similar measurement was carried out. After the tested substance was administered once intravenously for 5 minutes, its keeping dose was subsequently administered intravenously. After 10 minutes of the administration start of the keeping dose, ERP was measured in the respective stimulation frequency. After completion of the one series of measurements, the concentration of the tested substance was increased and the similar experiments were repeated. The ERP and conduction time in the atrium in the respective stimulation frequency were compared with various indices under control condition. The result is shown by mean.

[2] = test system: rabbit atrial muscle; assay: Assessment for rabbit atrial muscle, Vmax; conditions: Test Example 4, right atrial muscle, stimulation frequency 4 Hz, 15 minutes
Procedure: The specimen of the right atrial muscle which was enucleated from rabbit was used for the present experiment. The electrical stimulation was applied for the right atrial muscle which was enucleated, under conditions: a stimulation duration of 1 mess; a stimulation frequency of 4 Hz; and a stimulation intensity of about 1.2-fold of the threshold. The stimulation was provided from 30 minutes to 60 minutes before start of the experiment, and the condition of the specimen was stabilized. The action potential was recorded according to a glass microelectrode method. 3 M KCl was charged in the glass electrode, inserted in the specimen of the right atrium, and the action potential was recorded. Vmax is the parameter of the maximum upstroke slope of the action potential recorded, and a value which was automatically calculated by an action potential analysis soft (CAPA 1.23 manufactured by Physiotec. Co., Ltd.) was used. After the action potential in a normal Tyrode solution was recorded as control, the action potential after flowing the tested substances at respective concentrations for 15 minutes was recorded. The action of the tested substance for Vmax was calculated as an IC50 value.

[3] = test system: spontaneous nerve discharge of cut left saphenous nerve; assay: Suppression of spontaneous nerve discharge (ectopic firing); format: in vivo; conditions: Test Example 5, rat, intravenous catheter, urethane anesthetized; for ED50: read-out: Ectopic Firing (ID50 mg/kg)
Procedure: In order to assess the suppression action for spontaneous nerve discharge, the experiment was carried out by a method below, referring to “Burchiel, K J., Exp. Nuerol., 102, 249-253 (1988)”. Namely, for the rat in which spontaneous discharge was observed, the left saphenous nerve was cut off nearby knee articulatio before 1 week or more, and around 3 mm of the nerve was cut off so that the nerve was not adhered again. The left saphenous nerve was exposed under urethane (1 g/kg body weight) anesthetized, and about 1 cm of adjacent portion from the cut portion was peeled from a periphery tissue. Further, a catheter was preliminarily inserted in the vein of a right neck for administration of a compound. The peeled nerve was mounted on a platinum hook electrode, and liquid paraffin was put on it so that the nerve was not dried. The electrode was connected with a fine electrode amplifier, and the value was recorded on a computer through an AD/converter from an oscilloscope. The nerve discharge recorded was assessed by the number of ignition per 10 seconds using an analysis soft (AcqKnowledge).

[4] = dose 0.1 mg/kg intravenously, BCL 200 msec
[5] = dose 0.1 mg/kg intravenously, BCL 300 msec
[6] = dose 0.1 mg/kg intravenously, BCL 400 msec
[7] = dose 0.1 mg/kg intravenously, BCL 500 msec
[8] = dose 0.3 mg/kg intravenously, BCL 200 msec
[9] = dose 0.3 mg/kg intravenously, BCL 300 msec
[10] = dose 0.3 mg/kg intravenously, BCL 400 msec
[11] = dose 0.3 mg/kg intravenously, BCL 500 msec
[12] = dose 1 mg/kg intravenously, BCL 200 msec
[13] = dose 1 mg/kg intravenously, BCL 300 msec
[14] = dose 1 mg/kg intravenously, BCL 400 msec
[15] = dose 1 mg/kg intravenously, BCL 500 msec
[16] = dose 0.1 mg/kg intravenously, BCL 250 msec
[17] = dose 0.3 mg/kg intravenously, BCL 250 msec

## O=c1[nH]cccc1CN1CCC(CCc2nccs2)CC1 [Example 109, 1-[(2-Oxo-1,2-dihydro-3-pyridinyl)methyl]-4-[2-(1,3-thiazol-2-yl)ethyl]piperidine]
[1]; [4]
  Measurement Value of ERP: 110 ms
[1]; [5]
  Measurement Value of ERP: 140 ms
[1]; [6]
  Measurement Value of ERP: 165 ms
[1]; [7]
  Measurement Value of ERP: 185 ms
[1]; [8]
  Measurement Value of ERP: 130 ms
[1]; [9]
  Measurement Value of ERP: 155 ms
[1]; [10]
  Measurement Value of ERP: 185 ms
[1]; [11]
  Measurement Value of ERP: 200 ms
[1]; [12]
  Measurement Value of ERP: 150 ms
[1]; [13]
  Measurement Value of ERP: 175 ms
[1]; [14]
  Measurement Value of ERP: 215 ms
[1]; [15]
  Measurement Value of ERP: 235 ms

## COc1ncccc1CCC1CCN(Cc2ccc[nH]c2=O)CC1 [Example 118, 1-[(2-Oxo-1,2-dihydro-3-pyridinyl)methyl]-4-[2-(2-methoxy-3-pyridyl)ethyl]piperidine]
[1]; [8]
  Measurement Value of ERP: 130 ms
[1]; [9]
  Measurement Value of ERP: 160 ms
[1]; [10]
  Measurement Value of ERP: 180 ms
[1]; [11]
  Measurement Value of ERP: 190 ms
[1]; [13]
  Measurement Value of ERP: 190 ms
[1]; [14]
  Measurement Value of ERP: 215 ms
[1]; [15]
  Measurement Value of ERP: 220 ms

## O=c1[nH]cccc1CN1CCC(CCc2cccc3c2OCO3)CC1 [Example 128, 1-[(2-Oxo-1,2-dihydro-3-pyridinyl)methyl]-4-(2,3-methylenedioxyphenethyl)piperidine]
[1]; [4]
  Measurement Value of ERP: 125 ms
[1]; [5]
  Measurement Value of ERP: 160 ms
[1]; [6]
  Measurement Value of ERP: 175 ms
[1]; [7]
  Measurement Value of ERP: 185 ms
[1]; [8]
  Measurement Value of ERP: 155 ms
[1]; [9]
  Measurement Value of ERP: 180 ms
[1]; [10]
  Measurement Value of ERP: 195 ms
[1]; [11]
  Measurement Value of ERP: 210 ms
[1]; [13]
  Measurement Value of ERP: 215 ms
[1]; [14]
  Measurement Value of ERP: 250 ms
[1]; [15]
  Measurement Value of ERP: 280 ms

## COc1ccccc1C(=O)CC1CCN(Cc2ccc[nH]c2=O)CC1 [Example 144, 1-[(2-Oxo-1,2-dihydro-3-pyridinyl)methyl]-4-[2-(2-methoxyphenyl)-2-oxoethyl]piperidine]
[1]; [4]
  Measurement Value of ERP: 140 ms
[1]; [16]
  Measurement Value of ERP: 155 ms
[1]; [5]
  Measurement Value of ERP: 165 ms
[1]; [6]
  Measurement Value of ERP: 190 ms
[1]; [7]
  Measurement Value of ERP: 200 ms
[1]; [8]
  Measurement Value of ERP: 155 ms
[1]; [17]
  Measurement Value of ERP: 165 ms
[1]; [9]
  Measurement Value of ERP: 180 ms
[1]; [10]
  Measurement Value of ERP: 200 ms
[1]; [11]
  Measurement Value of ERP: 215 ms

## C#CCN(CC#C)C(=O)C[C@H]1CCCCN1Cc1ccc[nH]c1=O [Example 191, N1,N1-Di(2-propynyl)-2-[(2R)-1-[(2-oxo-1,2-dihydro-3-pyridinyl)methyl]-2-piperidyl]acetamide]
[1]; [8]
  Measurement Value of ERP: 135 ms
[1]; [9]
  Measurement Value of ERP: 155 ms
[1]; [10]
  Measurement Value of ERP: 165 ms
[1]; [11]
  Measurement Value of ERP: 175 ms
[1]; dose 0.3 mg/kg, BCL 300 msec
  Percent change in ERP versus pre-dose control: 14.8%
[1]; dose 0.3 mg/kg, BCL 400 msec
  Percent change in ERP versus pre-dose control: 6.5%
[1]; dose 0.3 mg/kg, BCL 500 msec
  Percent change in ERP versus pre-dose control: 9.4%
[1]; [12]
  Measurement Value of ERP: 150 ms
[1]; [13]
  Measurement Value of ERP: 170 ms
[1]; [14]
  Measurement Value of ERP: 185 ms
[1]; [15]
  Measurement Value of ERP: 195 ms
[1]; dose 1 mg/kg, BCL 300 msec
  Percent change in ERP versus pre-dose control: 25.9%
[1]; dose 1 mg/kg, BCL 400 msec
  Percent change in ERP versus pre-dose control: 19.4%
[1]; dose 1 mg/kg, BCL 500 msec
  Percent change in ERP versus pre-dose control: 21.9%

## C#CCN(CC#C)C(=O)C[C@H]1CCCCN1Cc1cccn(CC(F)(F)F)c1=O [Example 194, N1,N1-Di(2-propynyl)-2-[(2R)-1-[[2-oxo-1-(2,2,2-trifluoroethyl)-1,2-dihydro-3-pyridinyl)methyl]hexahydro-2-pyridinyl]acetamide]
[1]; [4]
  Measurement Value of ERP: 110 ms
[1]; [16]
  Measurement Value of ERP: 120 ms
[1]; [5]
  Measurement Value of ERP: 135 ms
[1]; [6]
  Measurement Value of ERP: 155 ms
[1]; [7]
  Measurement Value of ERP: 165 ms
[1]; [8]
  Measurement Value of ERP: 125 ms
[1]; [17]
  Measurement Value of ERP: 126 ms
[1]; [9]
  Measurement Value of ERP: 145 ms
[1]; [10]
  Measurement Value of ERP: 165 ms
[1]; [11]
  Measurement Value of ERP: 175 ms
[1]; [12]
  Measurement Value of ERP: 145 ms
[1]; dose 1 mg/kg intravenously, BCL 250 msec
  Measurement Value of ERP: 155 ms
[1]; [13]
  Measurement Value of ERP: 170 ms
[1]; [14]
  Measurement Value of ERP: 195 ms
[1]; [15]
  Measurement Value of ERP: 210 ms

## O=c1[nH]cc(Cl)cc1CN1CCC(/C=C/c2ccccc2F)CC1 [Example 334, 1-[(5-Chloro-2-oxo-1,2-dihydro-3-pyridinyl)methyl]-4-[(E)-2-(2-fluorophenyl)-1-ethenyl]piperidine]
[2]; Oryctolagus cuniculus, 0.25 h
  IC50: 17.5 µM
[3]
  ED50: 0.03 mg/kg

## O=c1[nH]cc(F)cc1CN1CCC(/C=C/c2ccccc2F)CC1 [Example 335, 1-[(5-Fluoro-2-oxo-1,2-dihydro-3-pyridinyl)methyl]-4-[(E)-2-(2-fluorophenyl)-1-ethenyl]piperidine]
[2]; Oryctolagus cuniculus, 0.25 h
  IC50: 7.8 µM
[3]
  ED50: 0.034 mg/kg

## Cc1ccccc1/C=C/C1CCN(Cc2cc(Cl)c[nH]c2=O)CC1 [Example 337, 1-[(5-Chloro-2-oxo-1,2-dihydro-3-pyridinyl)methyl]-4-[(E)-2-(2-methylphenyl)-1-ethenyl]piperidine]
[3]
  ED50: 0.3 mg/kg

## O=C(O)C(=O)O.O=c1[nH]cccc1CN1CCC(/C=C/c2ccccc2OCC2CCCCC2)CC1 [Example 343, 1-[(2-Oxo-1,2-dihydro-3-pyridinyl)methyl]-4-[(E)-2-[(2-cyclohexylmethyloxy)phenyl]-1-ethenyl]piperidine oxalate]
[2]
  IC50: 30 µM
[3]
  Ectopic Firing (ID50 mg/kg): 0.13 mg/kg

## O=C(O)C(=O)O.O=c1[nH]cccc1CN1CCC(/C=C\c2ccccc2OCC2CCCCC2)CC1 [Example 344, 1-[(2-Oxo-1,2-dihydro-3-pyridinyl)methyl]-4-[(Z)-2-[(2-cyclohexylmethyloxy)phenyl]-1-ethenyl]piperidine oxalate]
[2]
  IC50: 30 µM
[3]
  Ectopic Firing (ID50 mg/kg): 0.19 mg/kg

## O=C(O)C(=O)O.O=c1[nH]cc(F)cc1CN1CCC(/C=C/c2ccccc2OCC2CCCCC2)CC1 [Example 345, 1-[(5-Fluoro-2-oxo-1,2-dihydro-3-pyridinyl)methyl]-4-[(E)-2-[(2-cyclohexylmethyloxy)phenyl]-1-ethenyl]piperidine oxalate]
[3]
  Ectopic Firing (ID50 mg/kg): 0.4 mg/kg

## O=C(O)C(=O)O.O=c1[nH]cccc1CN1CCC(C#Cc2ccccc2OCC2CCCCC2)CC1 [Example 349, 1-[(2-Oxo-1,2-dihydro-3-pyridinyl)methyl]-4-[2-[(2-cyclohexylmethyloxy)phenyl]-1-ethynyl]piperidine oxalate]
[3]
  Ectopic Firing (ID50 mg/kg): 0.17 mg/kg

## N#Cc1c[nH]c(=O)c(CN2CCC(/C=C/c3ccccc3F)CC2)c1 [Example 351, 1-[(5-Cyano-2-oxo-1,2-dihydro-3-pyridinyl)methyl]-4-[(E)-2-(2-fluorophenyl)-1-ethenyl]piperidine]
[3]
  ED50: 0.17 mg/kg
